Laboratory results taken from patent US11518764B2, “Substituted heteroaryls as inhibitors of the BCL6 BTB domain protein-protein interaction” (Ontario Institute for Cancer Research (OICR), priority 2018, dated 2022).

Tests used:
[1] = tested on: Karpas422 cells; test: Tumor cell growth inhibition assay; assay type: cell-based; conditions: Homo sapiens, KARPAS-422, 144 h, read-out: Tumor Growth Inhibition in Karpas-422 (IC50, uM), Karpas422 cells, six days, ATPlite
Outline: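 Growth inhibition was measured by ATPlite luminescence after six days of culture at 37° C. in 5% CO2. Karpas422 cells were seeded at 2,000 per well in Alpha-MEM plus 10% FBS. Compounds were given as a 10-point concentration series with a highest dose of 5 uM.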

[2] = biological target: BCL6 BTB domain (Homo sapiens (Human), UniProt P41182); test: Surface plasmon resonance (SPR) assay; assay type: binding; conditions: BCL6 BTB domain captured on SA chip, single cycle kinetics
[3] = tested on: BCL6 reporter construct (3xBCL6-TK-Luc) in SuDHL4 cells; test: Cell-based luciferase assay; conditions: Homo sapiens, SU-DHL-4, 48 h, read-out: Luciferase-Assay EC50, uM), SuDHL4-3xBCL6-TK-Luc cells, two days, high dose 10 uM
Outline: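 SuDHL4 cells stably carrying a 3×BCL6-site TK-promoter firefly luciferase reporter, seeded at 15,000 cells/well, were dosed over a 10-point range (top 10 uM) and grown two days at 37 °C, 5% CO2. Luminescence then read after adding neolite reagent at room temperature.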

Row | Compound | IC50 [1] [µM] | Kd [2] [nM] | EC50 [3] [µM]
1 | C[C@@H](CO)Nc1cc(NC(=O)Cn2cc(-c3cc(Cl)c(O)c(C(N)=O)c3)c3c(=O)n(C)cnc32)c(Cl)cn1 [Compound I-198] | 3.02 | 21.7 | 5.82
2 | Cc1nc2c(c(-c3cc(F)c(O)c(C(N)=O)c3)cn2CC(=O)Nc2cc(N3CC4CCC(C3)O4)ncc2Cl)c(=O)n1C [Compound I-199] | 0.0909 | 8.18 | 0.117
3 | Cn1cnc2c(c(-c3cc(Cl)c(O)c(C(N)=O)c3)cn2CC(=O)Nc2cc(N3CCOCC3)nc(F)c2Cl)c1=O [Compound I-200] | 0.133 | 17.9 | 0.158
4 | Cn1cnc2c(c(-c3cc(Cl)c(O)c(C(N)=O)c3)cn2CC(=O)Nc2cc(N3CC(C)(C)NC(C)(C)C3)ncc2Cl)c1=O [Compound I-201] | 0.155 | 11.1 | 0.317
5 | CC[C@@H]1CN(c2cc(NC(=O)Cn3cc(-c4cc(Cl)c(O)c(C(N)=O)c4)c4c(=O)n(C)cnc43)c(Cl)cn2)CCO1 [Compound I-202] | 0.156 | 23.9 | 0.211
6 | CC[C@H]1CN(c2cc(NC(=O)Cn3cc(-c4cc(Cl)c(O)c(C(N)=O)c4)c4c(=O)n(C)cnc43)c(Cl)cn2)CCO1 [Compound I-203] | 0.187 | 30.6 | 0.222
7 | CC(C)[C@H]1CN(c2cc(NC(=O)Cn3cc(-c4cc(Cl)c(O)c(C(N)=O)c4)c4c(=O)n(C)cnc43)c(Cl)cn2)CCO1 [Compound I-204] | 0.146 | 35.7 | 0.251
8 | CC(C)[C@@H]1CN(c2cc(NC(=O)Cn3cc(-c4cc(Cl)c(O)c(C(N)=O)c4)c4c(=O)n(C)cnc43)c(Cl)cn2)CCO1 [Compound I-205] | 0.457 | 43.6 | 0.248
9 | Cc1nc2c(c(-c3cc(Cl)c(O)c(C(N)=O)c3)cn2CC(=O)Nc2cc(N3CCN(C)C[C@@H]3C)ncc2Cl)c(=O)n1C [Compound I-206] | 0.128 | 9.34 | 0.122
10 | Cc1nc2c(c(-c3cc(F)c(O)c(C(N)=O)c3)cn2CC(=O)Nc2cc(N3CCN(C)C[C@@H]3C)ncc2Cl)c(=O)n1C [Compound I-207] | 0.0703 | 4.45 | 0.0429
11 | Cn1cnc2c(c(-c3cc(Cl)c(O)c(C(N)=O)c3)cn2CC(=O)Nc2cc(F)nc(F)c2F)c1=O [Compound I-208] | 1.2 | 567 | 5.15
12 | C=Cc1cc(NC(=O)Cn2cc(-c3cc(Cl)c(O)c(C(N)=O)c3)c3c(=O)n(C)cnc32)c(Cl)cn1 [Compound I-209] | 0.343 | 51 | 0.296
13 | Cn1cnc2c(c(-c3cc(Cl)c(O)c(C(N)=O)c3)cn2CC(=O)Nc2c(F)c(F)nc(F)c2Cl)c1=O [Compound I-210] | 6.16 | 1100 | 14.9
14 | Cn1cnc2c(c(-c3cc(Cl)c(O)c(C(N)=O)c3)cn2CC(=O)NC2CCCCC2)c1=O [Compound I-211] | 10 | 1210 | 10
15 | Cn1cnc2c(c(-c3cc(Cl)c(O)c(C(N)=O)c3)cn2CC(=O)Nc2cc(N3CCOCC3(C)C)ncc2Cl)c1=O [Compound I-212] | 0.457 | 28.4 | 0.494
16 | Cn1cnc2c(c(-c3cc(Cl)c(O)c(C(N)=O)c3)cn2CC(=O)Nc2cc3c(cc2Cl)OCCN3CCN2CCOCC2)c1=O [Compound I-213] | 0.878 | 18.6 | 0.842
17 | Cn1cnc2c(c(-c3cc(Cl)c(O)c(C(N)=O)c3)cn2CC(=O)Nc2cc3c(cc2Cl)OCC(=O)N3CCN2CCOCC2)c1=O [Compound I-214] | 0.855 | 31.2 | 1.35

Row | Compound | IC50 [1] [µM] | Kd [2] [nM] | EC50 [3] [µM]
18 | CN(C)CC1CN(c2cc(NC(=O)Cn3cc(-c4cc(Cl)c(O)c(C(N)=O)c4)c4c(=O)n(C)cnc43)c(Cl)cn2)CCO1 (stereo not drawn) [Compound I-215] | 0.662 | 9.81 | 0.806
19 | C[C@H]1COCCN1c1cc(NC(=O)Cn2cc(-c3cc(Cl)c(O)c(C(N)=O)c3)c3c(=O)n(C)c(C(F)(F)F)nc32)c(Cl)cn1 [Compound I-216] | 0.831 | 76.4 | 0.97
20 | Cn1cnc2c(c(-c3cc(F)c(O)c(C(N)=O)c3)cn2CC(=O)Nc2cc(N3CCOCC3)ncc2F)c1=O [Compound I-217] | 0.382 | 26.6 | 0.727
21 | C[C@@H]1CN(c2cc(NC(=O)Cn3cc(-c4cc(F)c(O)c(C(N)=O)c4)c4c(=O)n(C)cnc43)c(Cl)cn2)C[C@H](C)N1 [Compound I-218] | 0.563 | 16.4 | 0.975
22 | Cn1cnc2c(c(-c3cc(F)c(O)c(C(N)=O)c3)cn2CC(=O)Nc2cc(N3CCOCC3)c(F)cc2Cl)c1=O [Compound I-219] | 0.216 | 70.9 | 0.535
23 | CN1C(C)(C)CN(c2cc(NC(=O)Cn3cc(-c4cc(F)c(O)c(C(N)=O)c4)c4c(=O)n(C)cnc43)c(Cl)cn2)CC1(C)C [Compound I-221] | 0.11 | 14.1 | 0.14
24 | Cn1cnc2c(c(-c3cc(C(N)=O)c(O)cc3F)cn2CC(=O)Nc2cc(N3CCOCC3)ncc2F)c1=O [Compound I-222] | 0.371 | 228 | 1.33
25 | Cn1cnc2c(c(-c3cc(C(N)=O)c(O)c(F)c3F)cn2CC(=O)Nc2cc(N3CC4CCOC4C3)ncc2Cl)c1=O (stereo not drawn) [Compound I-224] | 0.651 | 22.4 | 2.02
26 | C[C@@H]1CN(c2cc(NC(=O)Cn3cc(-c4cc(C(N)=O)c(O)c(F)c4F)c4c(=O)n(C)cnc43)c(Cl)cn2)C[C@H](C)N1 [Compound I-225] | 4.34 | 115 | 20.5
27 | Cc1nc2cc(Cl)c(NC(=O)Cn3cc(-c4cc(C(N)=O)c(O)c(F)c4F)c4c(=O)n(C)cnc43)cc2o1 [Compound I-226] | 1.89 | 468 | 5.12
28 | Cn1cnc2c(c(-c3cc(C(N)=O)c(O)c(F)c3F)cn2CC(=O)Nc2cc(N3CCOCC3)c(F)cc2Cl)c1=O [Compound I-227] | 2.16 | 420 | 2.5
29 | C[C@@H]1CN(C)C[C@H](C)N1c1cc(NC(=O)Cn2cc(-c3cc(C(N)=O)c(O)c(F)c3F)c3c(=O)n(C)cnc32)c(Cl)c(F)n1 [Compound I-229] | 0.0784 | 16.3 | 0.102
30 | Cc1nc2c(c(-c3cc(C(N)=O)c(O)c4c3OCO4)cn2CC(=O)Nc2cc(N3CCNC[C@@H]3C)nc(F)c2Cl)c(=O)n1C [Compound I-230] | 0.0157 | 2.32 | 0.0625
31 | CN1CCN(c2cc(NC(=O)Cn3cc(-c4cc(C(N)=O)c(O)c(F)c4F)c4c(=O)n(C)cnc43)c(Cl)cn2)CC1 [Compound I-231] | 1.18 | 89.9 | 1.47
32 | Cc1nc2c(c(-c3cc(Cl)c(O)c(C(N)=O)c3)cn2CC(=O)Nc2cc(N3CC(C)(C)N(C)C(C)(C)C3)ncc2Cl)c(=O)n1C [Compound I-232] | 0.222 | 11.8 | 0.267
33 | C[C@H]1COCCN1c1cc(NC(=O)Cn2cc(-c3cc(F)c(O)c(C(N)=O)c3)c3c(=O)n(C)c(C(F)(F)F)nc32)c(Cl)cn1 [Compound I-234] | 0.255 | 48.8 | 0.441
